What was measured:
male Wistar rats = assay: Bronchosecretogogue activity (Mawatari technique); assay type: in vivo, rat; details: 500 mg/kg/os, FlNa = Sodium fluoresceine
Text: The broncosecretogogue activity has been determined in male Wistar rats by per os administration according to the method of Mawatari [Mawatari H., Kagoshima Daigaku, Igaku-Zasshi, 27, 561 (1976)], comparing I with carboxymethylcysteine, sobrerol and guaiphenesin at the doses hereinafter stated.

[1] = test system: tracheo-bronchial mucus from rabbits; assay: Fluidifying activity in vivo, microviscosimeter on tracheo-bronchial mucus; details: 500 mg/kg/os, rabbit
Text: The fluidifying effect has been determined with the microviscosimeter on the tracheo-bronchial mucus from rabbits after administration by oral route, comparing I with sobrerol, at the doses hereinafter stated.

[2] = Acute toxicity (method of Litchfield and Wilcoxon), rat; details: Wistar, in vivo
Text: (§1) The acute toxicity has been determined in Swiss mouses and in Wistar rats for different administration routes, according to the method of Litchfield J. T. and Wilcoxon [J. Pharm. Exp. Therap. 96,99-113 (1949)].

[3] = Solubility of the isolated compound; assay type: physicochemical
Text: 73 Grams of an oil, impossible to crystallize but perfectly pure in TLC, are obtained.

[4] = Acute toxicity (method of Litchfield and Wilcoxon), mouse; details: Swiss, in vivo
Text: as §1

[5] = Pharmacokinetic tests after oral administration; assay type: in vivo; details: oral administration of I and sobrerol in equimolar doses, in the animal

CC1=CCC(C(C)(C)O)CC1O (centres unmarked) [Sobrerol, 2-methyl-5-(1-hydroxy-1-methyl-ethyl)-2-cyclohexen-1-ol, reference compound]
% Increase of FlNa in comparison with controls (male Wistar rats): 33.4% | % Reduction of the mucus viscosity [1]: 15.6%

CC1=CCC(C(C)(C)O)CC1OC(=O)c1cccs1 (centres unmarked) [Compound I, thiophen-2-carboxylate of 2-methyl-5-(1-hydroxy-1-methylethyl)-cyclohexen-2-yl]
% Increase of FlNa in comparison with controls (male Wistar rats): 76.4% | LD50 ([2]; ip): 2650 mg/kg | LD50 ([2]; oral, os): > 4000 mg/kg | solubility in the common organic solvents ([3]; common organic solvents): soluble in the common organic solvents | solubility in water ([3]; water): almost insoluble in water | LD50 ([4]; ip): 2500 mg/kg | LD50 ([4]; oral, os): > 4000 mg/kg | sobrerol concentrations at pulmonary level [5]: higher sobrerol concentrations at pulmonary level | % Reduction of the mucus viscosity [1]: 39.8%

From EP0096116B1, “Thiophene derivative having a mucoregulating and anticough activity, process for its preparation and pharmaceutical compositions containing it” (AUSONIA FARMACEUTICI S.r.l., priority 1982, dated 1983)
